According to ChEMBL document CHEMBL1143189:

Target: T1, Type-1 angiotensin II receptor A (Rattus norvegicus) (UniProt P25095)
T1 sequence (whole entry): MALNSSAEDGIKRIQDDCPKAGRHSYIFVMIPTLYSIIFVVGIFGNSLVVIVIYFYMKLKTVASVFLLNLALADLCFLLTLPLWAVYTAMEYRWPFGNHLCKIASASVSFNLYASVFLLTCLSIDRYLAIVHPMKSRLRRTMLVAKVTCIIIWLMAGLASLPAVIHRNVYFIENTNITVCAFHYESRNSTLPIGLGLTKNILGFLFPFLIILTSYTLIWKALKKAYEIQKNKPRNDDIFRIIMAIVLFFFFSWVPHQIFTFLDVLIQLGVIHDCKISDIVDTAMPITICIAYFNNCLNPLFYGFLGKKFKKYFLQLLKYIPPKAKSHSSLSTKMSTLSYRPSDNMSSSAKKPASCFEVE
Assay: Antagonist activity at rat AT1 receptor expressed in CHO cells assessed as angiotensin 2-evoked increase in intracellular calcium level
Assay type: functional, cell-based

CCCCc1ncc(/C=C(\Cc2cccs2)C(=O)O)n1Cc1ccc(C(=O)O)cc1
pKb: 8.8
